Measured values published in patent US20250333397A1 (REMIX THERAPEUTICS INC., priority 2021, published 2025).
Like-named read-outs stand apart in the source and are kept apart here.

How the values were obtained:
Type in all cases: cell-based, human
MYB mRNA = assay: RT-qPCR splicing assay, MYB canonical (CJ) and alternative (AJ) junction mRNA; conditions: Homo sapiens; for AC50: read-out: MYB AJ (AC50, increase in AJ mRNA)
Outline: (§1)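 Cells: A673 (DMEM/10% FBS, plated 24 h before) or K562 (IMDM/10% FBS). Dosing: 11-pt 3-fold series, 10 uM top final, ≤0.25% DMSO, 24 h, 37 °C/5% CO2. Readout: RT-qPCR of CJ and AJ junctions, housekeeper-normalized, RQ = 2^(-ΔΔCt) vs DMSO.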

Target C mRNA = assay: RT-qPCR splicing assay panel, Target C canonical junction (CJ) mRNA; conditions: Homo sapiens
Outline: as §1

HTT mRNA = assay: RT-qPCR splicing assay, HTT canonical (CJ) and alternative (AJ) junction mRNA; conditions: Homo sapiens; for AC50: read-out: HTT AJ (AC50, increase in AJ mRNA)
Outline: as §1

SMN2 mRNA = assay: RT-qPCR splicing assay panel, SMN2 canonical junction (CJ) mRNA; conditions: Homo sapiens
Outline: as §1

[1] = 24 h, Table 3A, A673 or K562 cells, 24 h treatment
[2] = 24 h, Table 3A, A673 or K562 cells, 24 h treatment, read-out: MYB CJ (IC50, decrease in CJ mRNA)
[3] = canonical junction (CJ) mRNA, RT-qPCR panel, Table 4A, read-out: MYB, decrease in CJ mRNA levels, IC50
[4] = canonical junction (CJ) mRNA, RT-qPCR panel, Table 4A, read-out: Target C, decrease in CJ mRNA levels, IC50
[5] = 24 h, Table 3A, A673 or K562 cells, 24 h treatment, read-out: HTT CJ (IC50, decrease in CJ mRNA)
[6] = canonical junction (CJ) mRNA, RT-qPCR panel, Table 4A, read-out: HTT, decrease in CJ mRNA levels, IC50
[7] = canonical junction (CJ) mRNA, RT-qPCR panel, Table 4A, read-out: SMN2, decrease in CJ mRNA levels, IC50
[8] = 24 h, Table 3B, A673 or K562 cells, 24 h treatment
[9] = 24 h, Table 3B, A673 or K562 cells, 24 h treatment, read-out: MYB CJ (IC50, decrease in CJ mRNA)
[10] = Table 4B, gene panel, read-out: MYB (IC50, decrease in CJ mRNA levels)
[11] = Table 4B, gene panel, read-out: Target C (IC50, decrease in CJ mRNA levels)
[12] = 24 h, Table 3B, A673 or K562 cells, 24 h treatment, read-out: HTT CJ (IC50, decrease in CJ mRNA)
[13] = Table 4B, gene panel, read-out: HTT (IC50, decrease in CJ mRNA levels)
[14] = Table 4B, gene panel, read-out: SMN2 (IC50, decrease in CJ mRNA levels)

| Structure (SMILES) | AC50 (MYB mRNA; [1]) [µM] | IC50 (MYB mRNA; [2]) [µM] | IC50 (MYB mRNA; [3]) [µM] | IC50 (Target C mRNA; [4]) [µM] | AC50 (HTT mRNA; [1]) [µM] | IC50 (HTT mRNA; [5]) [µM] | IC50 (HTT mRNA; [6]) [µM] | IC50 (SMN2 mRNA; [7]) [µM] | AC50 (MYB mRNA; [8]) [µM] | IC50 (MYB mRNA; [9]) [µM] | IC50 (MYB mRNA; [10]) [µM] | IC50 (Target C mRNA; [11]) [µM] | AC50 (HTT mRNA; [8]) [µM] | IC50 (HTT mRNA; [12]) [µM] | IC50 (HTT mRNA; [13]) [µM] | IC50 (SMN2 mRNA; [14]) [µM] |
| --- | --- | --- | --- | --- | --- | --- | --- | --- | --- | --- | --- | --- | --- | --- | --- | --- |
| COc1cc(-c2ccc(-c3ccc(N4CCC(NC5CC(F)(F)C5)C4)nn3)c(O)c2)cnn1 (stereo not drawn) [Compound 334, 2-(6-(3-((3,3-difluorocyclobutyl)amino)pyrrolidin-1-yl)pyridazin-3-yl)-5-(6-methoxypyridazin-4-yl)phenol] | 1 to 10 | 0.1 to 1 | 0.1 to 1 | 0.1 to 1 | 0.1 to 1 | < 0.1 | < 0.1 | 0.1 to 1 | – | – | – | – | – | – | – | – |
| Cc1nc2cc(O)c(-c3ccc(N4CCC(NC(C)(C)C(C)(C)C)C4)nn3)cc2o1 (stereo not drawn) [Compound 835] | – | – | – | – | – | – | – | – | 0.1 to 1 | 0.1 to 1 | 0.1 to 1 | 0.1 to 1 | 0.1 to 1 | 0.1 to 1 | 0.1 to 1 | 0.1 to 1 |
| COc1cc(-c2cc(O)c(-c3ccc(N4CC[C@@](C)(NC5CCC5)C4)nn3)cc2F)cnn1 (single isomer, unassigned) [Compound 308, 2-{6-[3-(cyclobutylamino)-3-methylpyrrolidin-1-yl]pyridazin-3-yl}-4-fluoro-5-(6-methoxypyridazin-4-yl)phenol] | 0.1 to 1 | 1 to 10 | 1 to 10 | 0.1 to 1 | 0.1 to 1 | < 0.1 | < 0.1 | < 0.1 | – | – | – | – | – | – | – | – |
| COc1cncc(-c2cc(O)c(-c3ccc(N4CC[C@H](NC5CCC5)C4)nn3)cc2F)c1 [Compound 224, 2-{6-[(3S)-3-(cyclobutylamino)pyrrolidin-1-yl]pyridazin-3-yl}-4-fluoro-5-(5-methoxypyridin-3-yl)phenol] | > 10 | > 10 | > 10 | > 10 | > 10 | 1 to 10 | 1 to 10 | 1 to 10 | – | – | – | – | – | – | – | – |
| Cc1ncc(-c2cc(O)c(-c3cnc(OC4CC(C)(C)NC(C)(C)C4)nn3)cc2F)s1 [Compound 435] | 1 to 10 | 1 to 10 | 1 to 10 | 0.1 to 1 | 0.1 to 1 | 0.1 to 1 | 0.1 to 1 | < 0.1 | – | – | – | – | – | – | – | – |
| Cc1cn(-c2cc(O)c(-c3ccc(N4CC[C@H](NC5CCC5)C4)nn3)cc2F)cn1 [Compound 227, 2-{6-[(3S)-3-(cyclobutylamino)pyrrolidin-1-yl]pyridazin-3-yl}-4-fluoro-5-(4-methylimidazol-1-yl)phenol] | 0.1 to 1 | 0.1 to 1 | 0.1 to 1 | 0.1 to 1 | < 0.1 | < 0.1 | < 0.1 | < 0.1 | – | – | – | – | – | – | – | – |
| COc1cc(-c2cc(O)c(-c3ccc(N4CC[C@H](NC(C)(C)C)C4)nn3)cc2F)ncn1 [Compound 397] | 1 to 10 | 0.1 to 1 | 0.1 to 1 | 0.1 to 1 | 0.1 to 1 | 0.1 to 1 | 0.1 to 1 | 0.1 to 1 | – | – | – | – | – | – | – | – |
| Cc1nc2cc(O)c(-c3ccc(N4CC[C@H](NC(C)(C)C)C4)nn3)cc2o1 [Compound 813] | – | – | – | – | – | – | – | – | 1 to 10 | 1 to 10 | 1 to 10 | 1 to 10 | 1 to 10 | 0.1 to 1 | 0.1 to 1 | 0.1 to 1 |
| Oc1cc(-c2cnc(C3CC3)s2)c(F)cc1-c1ccc(N2CCC(NC3CCC3)C2)nn1 (stereo not drawn) [Compound 444] | > 10 | > 10 | > 10 | > 10 | > 10 | > 10 | > 10 | 1 to 10 | – | – | – | – | – | – | – | – |
| CN(C1CCC1)[C@H]1CCN(c2ccc(-c3cc(F)c(-c4cn[nH]c4)cc3O)nn2)C1 [Compound 295] | 0.1 to 1 | 0.1 to 1 | 0.1 to 1 | < 0.1 | < 0.1 | < 0.1 | < 0.1 | < 0.1 | – | – | – | – | – | – | – | – |
| NCCNC1CCN(c2ccc(-c3ccc(-c4cn[nH]c4)cc3O)nn2)C1 (stereo not drawn) [Compound 208] | 0.1 to 1 | 1 to 10 | 1 to 10 | 1 to 10 | 0.1 to 1 | 0.1 to 1 | 0.1 to 1 | 0.1 to 1 | – | – | – | – | – | – | – | – |
| Cc1ncc(-c2ccc(-c3ccc(N4CC[C@](C)(NC5CCC5)C4)nn3)c(O)c2)s1 [Compound 357] | 0.1 to 1 | 0.1 to 1 | 0.1 to 1 | < 0.1 | < 0.1 | < 0.1 | < 0.1 | < 0.1 | – | – | – | – | – | – | – | – |
| COc1cc(-c2ccc(-c3ccc(N4CCC(C)(NC(C)C)C4)nn3)c(O)c2)cnn1 (stereo not drawn) [Compound 285, 2-{6-[3-(isopropylamino)-3-methylpyrrolidin-1-yl]pyridazin-3-yl}-5-(6-methoxypyridazin-4-yl)phenol] | 0.1 to 1 | 0.1 to 1 | 0.1 to 1 | < 0.1 | < 0.1 | < 0.1 | < 0.1 | < 0.1 | – | – | – | – | – | – | – | – |
| Cc1nc2cc(O)c(-c3ccc(N4CCC(NC5CCC5)C4)nn3)cc2o1 (stereo not drawn) [Compound 830] | – | – | – | – | – | – | – | – | > 10 | > 10 | > 10 | > 10 | > 10 | > 10 | > 10 | > 10 |
| Oc1cc(-c2cn[nH]c2)ccc1-c1ccc(N2CCC(NC3(C(F)F)CC3)C2)nn1 (stereo not drawn) [Compound 117, 2-[6-(3-{[1-(difluoromethyl)cyclopropyl]amino}pyrrolidin-1-yl)pyridazin-3-yl]-5-(1H-pyrazol-4-yl)phenol] | > 10 | > 10 | > 10 | > 10 | 1 to 10 | 1 to 10 | 1 to 10 | 0.1 to 1 | – | – | – | – | – | – | – | – |
| COc1cc(-c2ccc(-c3ccc(N4CC[C@H](N(C)C(C)(C)C)C4)nn3)c(O)c2)cnn1 [Compound 337, 2-{6-[(3S)-3-[tert-butyl(methyl)amino]pyrrolidin-1-yl]pyridazin-3-yl}-5-(6-methoxypyridazin-4-yl)phenol] | < 0.1 | < 0.1 | < 0.1 | < 0.1 | < 0.1 | < 0.1 | < 0.1 | < 0.1 | – | – | – | – | – | – | – | – |
| Oc1cc(-c2cn[nH]c2)ccc1-c1ccc(N2CC[C@H](NC3CC3)C2)nn1 [Compound 104, 2-{6-[(3S)-3-(cyclopropylamino)pyrrolidin-1-yl]pyridazin-3-yl}-5-(1H-pyrazol-4-yl)phenol; ethane] | 0.1 to 1 | 0.1 to 1 | 0.1 to 1 | 0.1 to 1 | < 0.1 | < 0.1 | < 0.1 | < 0.1 | – | – | – | – | – | – | – | – |
| Cc1ncc(-c2cc(O)c(-c3ccc(N4CC[C@@H](NCC5CC5)C4)nn3)cc2F)s1 [Compound 392] | < 0.1 | < 0.1 | < 0.1 | < 0.1 | < 0.1 | < 0.1 | < 0.1 | < 0.1 | – | – | – | – | – | – | – | – |
| Oc1cc(-c2cn[nH]c2)c(F)cc1-c1ccc(N2CCC(NC3CC3)C2)nn1 (stereo in doubt) [Compound 105, 2-{6-[(3R)-3-(cyclopropylamino)pyrrolidin-1-yl]pyridazin-3-yl}-4-fluoro-5-(1H-pyrazol-4-yl)phenol] | 0.1 to 1 | 0.1 to 1 | 0.1 to 1 | < 0.1 | < 0.1 | < 0.1 | < 0.1 | < 0.1 | – | – | – | – | – | – | – | – |
| Cn1cc2cc(-c3ccc(N4CCC(NC(C)(C)C)C4)nn3)c(O)cc2n1 (stereo not drawn) [Compound 801] | – | – | – | – | – | – | – | – | 1 to 10 | 1 to 10 | 1 to 10 | 1 to 10 | 1 to 10 | 1 to 10 | 1 to 10 | 0.1 to 1 |
| COc1cc(-c2ccc(-c3ccc(N4CC[C@](C)(NCC5CC5)C4)nn3)c(O)c2)ncn1 [Compound 376, 2-{6-[(3S)-3-[(cyclopropylmethyl)amino]-3-methylpyrrolidin-1-yl]pyridazin-3-yl}-5-(6-methoxypyrimidin-4-yl)phenol] | 0.1 to 1 | 0.1 to 1 | 0.1 to 1 | 0.1 to 1 | < 0.1 | < 0.1 | < 0.1 | < 0.1 | – | – | – | – | – | – | – | – |
